Data: patent US10961238B2, “Modulators of hedgehog (Hh) signaling pathway” (E-THERAPEUTICS PLC, priority 2016, dated 2021)
Like-named read-outs stand apart in the source and are kept apart here.

Assays:
[1] = tested on: SMO L416F mutant cell line; assay: C3H10T1/2 cell differentiation assay in SMO L416F mutant cell line versus wild type; format: cell-based, mouse; conditions: SMO L416F mutant cell line compared to the wild type, C3H10T1/2 cell differentiation assay
Source text: FIG. 1 is a graph of the percent inhibition of C3H10T1/2 cell differentiation of vismodegib compared to compound of the invention (compound number 174), in wild type versus SMO L416F mutant cell line.
Loss of Potency in C3H10T1/2 Cell Differentiation Assay Associated with Presence of SMO L416F Mutation.
Table 3 below details the number of fold reduction in potency of a range of compounds of the invention when applied to the SMO L416F mutant cell line compared to the wild type. SMO mutation has been described in the literature (Pricl, Sabrina, et al.) as a key mutation causative of vismodegib resistance in the clinic by interfering with drug binding.

[2] = biological target: T1, SMO (Homo sapiens, UniProt Q99835); assay: Smoothened (SMO) binding fluorescence polarisation assay (BODIPY-cyclopamine competition); conditions: SMO binding FP assay versus C3H10T1/2 cellular assay
T1 construct: expressed in transfected cells; host or cells: HEK293
In short: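 Competition fluorescence polarisation with 3 nM BODIPY-cyclopamine on membranes from SMO-overexpressing HEK293 cells, 25 mM HEPES pH7.4 buffer, 0.3% DMSO. Seven-point compound dilutions; read after 24 hours at room temperature in the dark.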

[3] = tested on: C3H10T1/2 cells; assay: C3H assay: differentiation of C3H10T1/2 cells by mSHH, measurement of alkaline phosphatase; format: cell-based, mouse; conditions: Mus musculus, C3H 10T1/2
[4] = C3H10T1/2 cells stimulated with mSHH for 72 hours, alkaline phosphatase activity, read-out: IC50 Ranges

T1 sequence (Q99835 28-787): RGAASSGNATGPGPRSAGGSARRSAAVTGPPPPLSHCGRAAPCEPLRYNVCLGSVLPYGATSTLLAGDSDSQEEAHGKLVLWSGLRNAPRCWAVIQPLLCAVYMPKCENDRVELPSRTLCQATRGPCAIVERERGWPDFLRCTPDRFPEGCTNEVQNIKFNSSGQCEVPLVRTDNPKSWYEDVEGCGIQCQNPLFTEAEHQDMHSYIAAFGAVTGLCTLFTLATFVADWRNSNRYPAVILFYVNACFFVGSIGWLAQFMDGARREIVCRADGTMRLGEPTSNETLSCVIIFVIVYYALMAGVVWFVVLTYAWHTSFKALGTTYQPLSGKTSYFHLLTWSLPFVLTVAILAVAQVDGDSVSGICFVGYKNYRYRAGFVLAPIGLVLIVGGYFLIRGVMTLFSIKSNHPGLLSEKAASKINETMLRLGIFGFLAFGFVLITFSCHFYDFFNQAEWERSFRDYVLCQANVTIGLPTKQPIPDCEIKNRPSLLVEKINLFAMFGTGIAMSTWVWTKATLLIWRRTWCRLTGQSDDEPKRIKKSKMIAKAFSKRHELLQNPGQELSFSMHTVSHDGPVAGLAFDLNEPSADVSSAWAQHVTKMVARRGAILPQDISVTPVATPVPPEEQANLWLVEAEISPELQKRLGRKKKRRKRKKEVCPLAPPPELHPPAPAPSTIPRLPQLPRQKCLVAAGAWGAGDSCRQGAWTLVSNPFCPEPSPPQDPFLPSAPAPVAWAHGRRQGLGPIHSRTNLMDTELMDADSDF

Q: How did the “Fold reduction in potency in SMO L416F mutant cell line” value (“Fold reduction in potency” for short) [1] turn out when CC(C)(C)NC(=O)N1CCC(S(=O)(=O)N2CCC(c3c[nH]c4ncccc34)CC2)CC1 [Compound 107, N-tert-butyl-4-[4-(1H-pyrrolo[2,3-b]pyridin-3-yl)piperidin-1-yl]sulfonylpiper-idine-1-carboxamide] was run?
A: The value was 56.

Q: What about the “Ratio of potency in SMO binding assay to potency in C3H10T1/2 cellular assay” value (“Ratio of potency in SMO binding assay” below) [2] of the same compound?
A: The value was 20.

Q: And the IC50 [3, 4]?
A: Its IC50 is 10 to 100 nM.

Q: Which results are given for CC(C)(C)OC(=O)N1CC(S(=O)(=O)N2CCC(c3cnc4occc4c3)CC2)C1 [Compound 124, tert-butyl 3-(4-furo[2,3-b]pyridin-5-ylpiperidin-1-yl)sulfonylaze-tidine-1-carboxylate]?
A: Fold reduction in potency in SMO L416F mutant cell line [1]: 64; Ratio of potency in SMO binding assay to potency in C3H10T1/2 cellular assay [2]: 82; IC50 [3, 4]: 10 to 100 nM

Q: With CC(C)(C)CN1CC(S(=O)(=O)N2CCC(c3c[nH]c4ncccc34)CC2)C1 [Compound 143, 3-[1-[1-(2,2-Dimethylpropyl)azetidin-3-yl]sulfonyl-4-piperidyl]-1H-pyrrolo[2,3-b]pyridine] as the compound, how does the “Fold reduction in potency” value [1] read?
A: The value was 21.

Q: What about the “Ratio of potency in SMO binding assay” value [2] of the same compound?
A: The value was >17.

Q: And the IC50 [3, 4]?
A: The IC50 was 100 to 1000 nM.

Q: Which results are given for O=C(OCC1CCC1)N1CC(S(=O)(=O)N2CCC(c3cn(C(=O)OCC4CCC4)c4ncccc34)CC2)C1 [Compound 154, cyclobutylmethyl 3-[1-[1-(cyclobutylmethoxycarbonyl)azetidin-3-yl]sulfonylpiper-idin-4-yl]pyrrolo[2,3-b] pyridine-1-carboxylate]?
A: Fold reduction in potency in SMO L416F mutant cell line [1]: 28; Ratio of potency in SMO binding assay to potency in C3H10T1/2 cellular assay [2]: 66; IC50 [3, 4]: 10 to 100 nM

Q: For Cc1ccnc2[nH]cc(C3CCN(S(=O)(=O)C4CN(C(=O)OC(C)(C)C)C4)CC3)c12 [Compound 223, tert-butyl 3-[4-(4-methyl-1H-pyrrolo[2,3-b]pyridin-3-yl)piperidin-1-yl]sulfonylaze-tidine-1-carboxylate], which “Fold reduction in potency” value [1] is on record?
A: Its value is 26.

Q: What about the “Ratio of potency in SMO binding assay” value [2] of the same compound?
A: The value was 21.

Q: What about the IC50 [3, 4] of the same compound?
A: The IC50 was 10 to 100 nM.

Q: For CC(C)(C)OC(=O)N1CCCC(S(=O)(=O)N2CCC(c3c[nH]c4ncccc34)CC2)C1 (stereo not shown) [Compound 248, tert-butyl 3-[4-(1H-pyrrolo[2,3-b]pyridin-3-yl)piperidin-1-yl]sulfonylpiper-idine-1-carboxylate], which “Fold reduction in potency” value [1] is on record?
A: The value was 10.

Q: What about the IC50 [3, 4] of the same compound?
A: The IC50 was 100 to 1000 nM.

Q: Which “Fold reduction in potency” value [1] does the source give for CC(C)[C@@H](CO)NC(=O)N1CC(S(=O)(=O)N2CCC(c3c[nH]c4ncccc34)CC2)C1 [Compound 250, N-[(2S)-1-hydroxy-3-methylbutan-2-yl]-3-[4-(1H-pyrrolo[2,3-b]pyridin-3-yl)piperidin-1-yl]sulfonylaze-tidine-1-carboxamide] here?
A: Its value is 29.

Q: And the IC50 [3, 4]?
A: Its IC50 is 10 to 100 nM.

Q: What does the source list for CS(=O)(=O)c1ccc(C(=O)Nc2ccc(Cl)c(-c3ccccn3)c2)c(Cl)c1 [Vismodegib, reference compound]?
A: Fold reduction in potency in SMO L416F mutant cell line [1]: 202; Ratio of potency in SMO binding assay to potency in C3H10T1/2 cellular assay [2]: 2.2; IC50 ([3]; reference compounds run in the C3H assay, read-out: mean IC50): 6.3 nM
